The values below come from US20130296363A1, “QUINOLINE AND ISOQUINOLINE DERIVATIVES FOR USE AS JAK MODULATORS” (AMBIT BIOSCIENCES CORPORATION, priority 2010, published 2013).

The IC50 is the point on the concentration scale where inhibition reaches its midpoint. One may read the Kd as the constant that tells how readily two partners part at equilibrium.

Experiment [1] has as its system GM-CSFR/JAK2/STAT5 pathway in CSTF-1 cells. Description: CSTF-1 cell-based reporter assay (beta-lactamase reporter, GM-CSF stimulated). Conditions: Homo sapiens, GM-CSF at 2 ng/mL, 4 hours, read-out: Cell Assay: CS TF-1 reporter assay IC50. Here is the method:
CSTF-1 cells are derived from the human erythroleukemia cell line that is growth dependent on GM-CSF and has an intact GM-CSFR/JAK2/STAT5 pathway. The cell line contains stably integrated beta-lactamase reporter gene under the control of the […] (irf 1) response element recognized by the activated transcription factor STAT5. csTF-1 cells (Invitrogen K1219) were washed with assay media (97% OPTIMEM/0.5% dialyzed FBS/0.1 mM NEAA/1 mM Na pyr/P/S) and seeded in the same media at 5×10^5 cell/mL in T150 flask. After 16 hour incubation, cells were seeded at 2×10^5 cell/well in 50 μl volume, into Costar, clear bottom, 96-well assay plates. Serial dilutions of compounds were added to the plates with final DMSO concentration at 0.5% and GM-CSF at 2 ng/mL and the plates were then incubated at 30° C. and 5% CO2 for 4 hours. The plates were brought to room temperature before adding Substrate Mixture according to manufacturer's protocol (Invitrogen, Catalog #K1085). The assay plates containing the substrate mixture were incubated in the dark at room temperature for 2 hours. Blue and green fluorescence was measured with excitation at 409 nm and emission at 460 nm (for blue) and excitation at 409 nm and emission at 530 nm (for green) using Spectra Max Gemini EM.

The next experiment has as its target T1, JAK2 (Homo sapiens, UniProt O60674).
T1 construct: made in house
Description: Competition binding assay to determine Kd against JAK kinases: JAK2. Here is the method: (§1) Competition binding assays used herein were developed, validated and performed as described in Fabian et al., Nature Biotechnology 2005, 23, 329-336. Kinases were produced as fusions to T7 phage (See, Fabian et al. or WO04/015142) or alternatively, the kinases were expressed in HEK-293 cells and subsequently tagged with DNA for PCR detection (See, WO08/005,310). For the binding assays, streptavidin-coated magnetic beads were treated with biotinylated affinity ligands for 30 min at rt to generate affinity resins. The liganded beads were blocked with excess biotin and washed with blocking buffer (SeaBlock (Pierce), 1% BSA, 0.05% Tween 20, 1 mM DTT) to remove unbound ligand and to reduce non-specific binding. Binding reactions were assembled by combining kinase, liganded affinity beads, and test compounds in 1× binding buffer (20% SeaBlock, 0.17×PBS, 0.05% Tween 20, 6 mM DTT). Test compounds were prepared as 100× stocks in DMSO and rapidly diluted into the aqueous environment. DMSO was added to control assays lacking a test compound. Primary screen interactions were performed in polypropylene 384-well plates in a final volume of 34 μL, while Kd determinations were performed in polystyrene 96-well plates in a final volume of 135 μL. The assay plates were incubated at room temperature with shaking for 1 hour, long enough for binding reactions to reach equilibrium, and the affinity beads were washed extensively with wash buffer (1×PBS, 0.05% Tween 20) to remove unbound protein. The beads were then resuspended in elution buffer (1×PBS, 0.05% Tween 20, 2 μM non-biotinylated affinity ligand) and incubated at room temperature with shaking for 30 min. The kinase concentration in the eluates was measured by quantitative PCR. Each kinase was tested individually against each compound. Kds were determined using eleven serial threefold dilutions. A selectivity score, which is a quantitative measure of selectivity of a compound against a panel of enzymes, may be calculated for a compound by dividing the number of enzymes for which a compound meets a set criteria, (for example, a binding constant of 100 nM or less), by the total number of enzymes tested.

The target in another experiment is T2, JAK3 (Homo sapiens, UniProt P52333).
T2 construct: made in house
T2 sequence (P52333 1-1124): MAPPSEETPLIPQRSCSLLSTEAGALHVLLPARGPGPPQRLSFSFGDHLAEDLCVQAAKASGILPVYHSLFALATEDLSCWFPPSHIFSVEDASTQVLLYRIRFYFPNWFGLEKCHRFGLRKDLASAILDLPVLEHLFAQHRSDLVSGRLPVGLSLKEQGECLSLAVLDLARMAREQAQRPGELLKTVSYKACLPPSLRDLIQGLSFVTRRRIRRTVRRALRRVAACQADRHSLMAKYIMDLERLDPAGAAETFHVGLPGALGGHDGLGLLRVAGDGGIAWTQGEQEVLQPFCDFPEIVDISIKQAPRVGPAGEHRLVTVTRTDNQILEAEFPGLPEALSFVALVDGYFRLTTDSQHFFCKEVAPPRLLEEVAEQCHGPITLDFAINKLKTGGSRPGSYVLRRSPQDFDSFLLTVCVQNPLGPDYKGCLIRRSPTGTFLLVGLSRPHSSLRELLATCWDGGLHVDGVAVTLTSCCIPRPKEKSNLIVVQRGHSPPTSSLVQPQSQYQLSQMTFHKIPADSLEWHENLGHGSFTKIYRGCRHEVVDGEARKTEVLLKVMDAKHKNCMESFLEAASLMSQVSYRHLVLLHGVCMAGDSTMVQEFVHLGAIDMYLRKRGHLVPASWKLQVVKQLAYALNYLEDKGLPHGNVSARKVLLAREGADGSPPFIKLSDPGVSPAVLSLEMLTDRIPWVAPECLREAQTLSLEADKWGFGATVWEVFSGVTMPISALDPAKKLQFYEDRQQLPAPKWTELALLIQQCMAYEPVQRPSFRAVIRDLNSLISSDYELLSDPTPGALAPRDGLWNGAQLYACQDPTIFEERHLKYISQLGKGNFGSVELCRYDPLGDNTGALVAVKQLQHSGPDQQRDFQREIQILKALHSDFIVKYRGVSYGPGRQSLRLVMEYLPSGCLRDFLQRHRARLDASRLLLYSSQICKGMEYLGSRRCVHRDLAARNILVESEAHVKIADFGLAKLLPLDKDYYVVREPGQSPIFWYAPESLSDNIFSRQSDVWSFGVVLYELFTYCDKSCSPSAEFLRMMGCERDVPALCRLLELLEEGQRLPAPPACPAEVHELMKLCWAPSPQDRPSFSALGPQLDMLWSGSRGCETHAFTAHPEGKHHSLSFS
Description: Competition binding assay to determine Kd against JAK kinases: JAK3. Here is the method:
as §1

The target of the next experiment is T3, TYK2 (Homo sapiens, UniProt P29597).
T3 construct: made in house
The experiment in a line: Competition binding assay to determine Kd against JAK kinases: TYK2. Here is the method: as §1

Experiment [2] deals with panel of distinct kinases excluding mutant variants, typically 359 or 386 kinases. Description: Kinase selectivity score S10 from competition binding panel. The settings on record: compound at 10 μM; fraction of kinases with inhibition of 90% or greater. Here is the method:
as §1

T1 sequence (O60674 whole entry): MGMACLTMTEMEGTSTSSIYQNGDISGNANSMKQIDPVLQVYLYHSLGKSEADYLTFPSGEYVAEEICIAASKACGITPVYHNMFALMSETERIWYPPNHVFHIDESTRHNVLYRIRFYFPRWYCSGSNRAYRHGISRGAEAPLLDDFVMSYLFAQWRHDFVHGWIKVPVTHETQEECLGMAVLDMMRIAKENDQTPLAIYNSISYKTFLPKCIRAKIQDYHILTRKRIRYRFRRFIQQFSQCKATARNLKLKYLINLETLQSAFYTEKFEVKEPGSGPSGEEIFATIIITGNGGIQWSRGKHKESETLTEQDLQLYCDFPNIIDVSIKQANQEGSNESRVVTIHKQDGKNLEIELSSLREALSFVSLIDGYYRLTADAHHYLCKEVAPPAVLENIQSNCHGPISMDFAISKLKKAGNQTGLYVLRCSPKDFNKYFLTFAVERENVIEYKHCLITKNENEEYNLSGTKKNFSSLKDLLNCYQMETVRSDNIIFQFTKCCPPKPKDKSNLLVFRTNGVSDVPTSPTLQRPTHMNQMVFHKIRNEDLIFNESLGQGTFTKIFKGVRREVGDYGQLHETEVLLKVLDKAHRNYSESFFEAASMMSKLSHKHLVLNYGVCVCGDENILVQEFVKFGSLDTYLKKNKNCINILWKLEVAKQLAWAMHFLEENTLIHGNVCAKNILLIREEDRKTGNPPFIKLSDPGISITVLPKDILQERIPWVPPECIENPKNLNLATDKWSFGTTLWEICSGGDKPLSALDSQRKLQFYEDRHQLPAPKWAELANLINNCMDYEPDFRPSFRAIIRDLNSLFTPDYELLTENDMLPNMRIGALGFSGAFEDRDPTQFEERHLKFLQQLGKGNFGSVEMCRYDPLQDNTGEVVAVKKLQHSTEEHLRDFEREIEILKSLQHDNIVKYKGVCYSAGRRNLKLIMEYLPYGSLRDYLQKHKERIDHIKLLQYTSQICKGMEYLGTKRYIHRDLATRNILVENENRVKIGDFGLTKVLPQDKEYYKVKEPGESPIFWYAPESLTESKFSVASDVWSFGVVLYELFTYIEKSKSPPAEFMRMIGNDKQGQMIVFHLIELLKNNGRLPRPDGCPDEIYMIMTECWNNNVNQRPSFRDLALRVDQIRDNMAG
T3 sequence (P29597 whole entry): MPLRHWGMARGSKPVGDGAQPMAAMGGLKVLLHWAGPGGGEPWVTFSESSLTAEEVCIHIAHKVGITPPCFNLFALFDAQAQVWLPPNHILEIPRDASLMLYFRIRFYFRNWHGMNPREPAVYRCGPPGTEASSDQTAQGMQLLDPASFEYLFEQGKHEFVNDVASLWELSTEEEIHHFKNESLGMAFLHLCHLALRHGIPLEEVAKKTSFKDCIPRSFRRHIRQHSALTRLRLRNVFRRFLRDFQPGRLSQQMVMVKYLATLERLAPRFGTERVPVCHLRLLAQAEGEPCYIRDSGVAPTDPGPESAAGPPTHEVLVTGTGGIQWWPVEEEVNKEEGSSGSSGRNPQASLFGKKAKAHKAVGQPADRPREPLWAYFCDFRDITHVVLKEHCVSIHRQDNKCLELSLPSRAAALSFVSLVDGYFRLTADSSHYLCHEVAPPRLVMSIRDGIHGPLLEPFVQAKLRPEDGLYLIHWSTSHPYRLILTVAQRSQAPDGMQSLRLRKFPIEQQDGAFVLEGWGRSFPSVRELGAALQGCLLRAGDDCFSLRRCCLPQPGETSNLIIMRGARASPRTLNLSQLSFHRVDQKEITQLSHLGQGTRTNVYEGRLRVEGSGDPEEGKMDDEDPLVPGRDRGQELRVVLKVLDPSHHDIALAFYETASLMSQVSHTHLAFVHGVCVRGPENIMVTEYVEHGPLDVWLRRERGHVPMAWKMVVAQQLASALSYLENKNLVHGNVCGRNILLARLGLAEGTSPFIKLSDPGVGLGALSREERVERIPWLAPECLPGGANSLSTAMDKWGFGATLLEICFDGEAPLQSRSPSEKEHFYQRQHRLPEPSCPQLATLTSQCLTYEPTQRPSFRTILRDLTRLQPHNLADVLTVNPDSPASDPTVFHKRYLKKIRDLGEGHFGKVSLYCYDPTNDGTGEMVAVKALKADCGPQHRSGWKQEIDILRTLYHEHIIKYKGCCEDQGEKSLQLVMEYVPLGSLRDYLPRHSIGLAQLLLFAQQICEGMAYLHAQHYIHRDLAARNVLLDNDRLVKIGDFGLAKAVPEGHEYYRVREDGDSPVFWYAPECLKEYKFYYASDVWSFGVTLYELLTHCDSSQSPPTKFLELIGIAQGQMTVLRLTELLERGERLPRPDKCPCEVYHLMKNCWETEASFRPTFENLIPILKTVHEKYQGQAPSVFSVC

As to `Cc1cc(Nc2nc(C(O)c3ccc(F)cc3)cc3ccccc23)n[nH]1` (racemic) [Example 2, (R,S)-(4-fluorophenyl)(1-(5-methyl-1H-pyrazol-3-ylamino)isoquinolin-3-yl)methanol], the IC50 in experiment [1] was ≤ 0.1 µM. Further, the dissociation constant Kd at JAK2 was ≤ 0.005 µM; at JAK3 it was ≤ 0.01 µM; on TYK2 it was ≤ 0.01 µM.
Turning to `Cc1coc(Nc2nc([S+]([O-])c3ccc(F)cc3)cc3ccccc23)n1` (racemic) [Example 22, (R,S)—N-(3-(4-fluorophenylsulfinyl)isoquinolin-1-yl)-4-methyloxazol-2-amine], in experiment [1], the IC50 was > 0.5 µM. For the same molecule, the results for the dissociation constant (Kd) on JAK2 and on JAK3 were > 0.05 µM and > 0.1 µM, respectively. For the same molecule, in experiment [2], the “S-Score: S(10) at 10 μM” value is on record as “A (A ≦ 0.3)”.
As to `Cc1cc(Nc2nc(C(=O)c3ccc(F)cc3)cc3ccccc23)n[nH]1` [Example 1, (4-fluorophenyl)(1-(5-methyl-1H-pyrazol-3-ylamino)isoquinolin-3-yl)methanone], the concentration for half-maximal inhibition (IC50) in experiment [1] lay in the range of 0.1 to 0.5 µM. Further, the Kd at JAK2 is ≤ 0.005 µM; at JAK3, 0.01 to 0.1 µM; on TYK2 it was ≤ 0.01 µM. Besides, the “S-Score: S(10) at 10 μM” value in experiment [2] is “A (A ≦ 0.3)”.
On to `Cc1cc(Nc2nc(S(=O)(=O)c3ccc(F)cc3)cc3ccccc23)n[nH]1` [Example 10, 3-(4-fluorophenylsulfonyl)-N-(5-methyl-1H-pyrazol-3-yl)isoquinolin-1-amine], for which the IC50 in experiment [1] was ≤ 0.1 µM. Also, the equilibrium dissociation constant (Kd) on JAK2 is ≤ 0.005 µM; on JAK3, ≤ 0.01 µM; on TYK2, ≤ 0.01 µM. Also, the “S-Score: S(10) at 10 μM” value in experiment [2] is “D (D > 0.5)”.
Regarding `[O-][S+](c1ccc(F)cc1)c1cc2ccccc2c(Nc2nccs2)n1` (stereo not shown) [Example 11, N-(3-(4-fluorophenylsulfinyl)isoquinolin-1-yl)thiazol-2-amine], the concentration for half-maximal inhibition (IC50) in experiment [1] is ≤ 0.1 µM. The figures for the dissociation constant (Kd) on JAK2 and at JAK3 were ≤ 0.005 µM and 0.01 to 0.1 µM, respectively. The “S-Score: S(10) at 10 μM” value in experiment [2] is recorded as “A (A ≦ 0.3)”.
With `Cc1cnc(Nc2nc([S+]([O-])c3ccc(F)cc3)cc3ccccc23)s1` (stereo not shown) [Example 12, N-(3-(4-fluorophenylsulfinyl)isoquinolin-1-yl)-5-methylthiazol-2-amine], the half-maximal inhibitory concentration (IC50) in experiment [1] was ≤ 0.1 µM. For the same molecule, the dissociation constant (Kd) on JAK2 was ≤ 0.005 µM; on JAK3 it was 0.01 to 0.1 µM; on TYK2 it was ≤ 0.01 µM. Further, in experiment [2], the “S-Score: S(10) at 10 μM” value is listed as “C (0.4 < C ≦ 0.5)”.
Consider `Cc1cc(Nc2nc([S+]([O-])c3ccc(F)cc3)cc3ccccc23)n[nH]1` (stereo not shown) [Example 13, 3-(4-fluorophenylsulfinyl)-N-(5-methyl-1H-pyrazol-3-yl)isoquinolin-1-amine], for which the half-inhibitory concentration (IC50) in experiment [1] was ≤ 0.1 µM. In addition, the figures for the equilibrium dissociation constant (Kd) on JAK2, on JAK3 and on TYK2 were ≤ 0.005 µM, ≤ 0.01 µM and ≤ 0.01 µM, respectively. Also, in experiment [2], the “S-Score: S(10) at 10 μM” value is given as “D (D > 0.5)”.
`O=S(=O)(c1ccc(F)cc1)c1cc2ccccc2c(Nc2cc[nH]n2)n1` [Example 14, 3-(4-fluorophenylsulfonyl)-N-(1H-pyrazol-3-yl)isoquinolin-1-amine]: in experiment [1], the 50% inhibitory concentration (IC50) was ≤ 0.1 µM. Further, the dissociation constant Kd at JAK2 was ≤ 0.005 µM; at JAK3 it was ≤ 0.01 µM; on TYK2, ≤ 0.01 µM. For the same molecule, the “S-Score: S(10) at 10 μM” value in experiment [2] was “B (0.3 < B ≦ 0.4)”.
As to `COc1cc(Nc2nc(S(=O)(=O)c3ccc(F)cc3)cc3ccccc23)n[nH]1` [Example 15, 3-(4-fluorophenylsulfonyl)-N-(5-methoxy-1H-pyrazol-3-yl)isoquinolin-1-amine], in experiment [1], the IC50 is ≤ 0.1 µM. Further, the results for the Kd on JAK2, at JAK3 and on TYK2 were ≤ 0.005 µM, ≤ 0.01 µM and ≤ 0.01 µM, respectively. The “S-Score: S(10) at 10 μM” value in experiment [2] is “D (D > 0.5)”.
With `Cc1cnc(Nc2nc(S(=O)(=O)c3ccc(F)cc3)cc3ccccc23)s1` [Example 16, N-(3-(4-fluorophenylsulfonyl)isoquinolin-1-yl)-5-methylthiazol-2-amine], in experiment [1], the half-maximal inhibitory concentration (IC50) is ≤ 0.1 µM. Also, the dissociation constant (Kd) is ≤ 0.005 µM at JAK2, ≤ 0.01 µM on JAK3 and ≤ 0.01 µM on TYK2. Moreover, the “S-Score: S(10) at 10 μM” value in experiment [2] is “B (0.3 < B ≦ 0.4)”.
As to `O=S(=O)(c1ccc(F)cc1)c1cc2ccccc2c(Nc2nccs2)n1` [Example 17, N-(3-(4-fluorophenylsulfonyl)isoquinolin-1-yl)thiazol-2-amine], the concentration for half-maximal inhibition (IC50) in experiment [1] fell in the range of 0.1 to 0.5 µM. For the same molecule, the figures for the Kd at JAK2, at JAK3 and on TYK2 were ≤ 0.005 µM, 0.01 to 0.1 µM and 0.01 to 0.1 µM, respectively. Moreover, the “S-Score: S(10) at 10 μM” value in experiment [2] was “A (A ≦ 0.3)”.
On to `O=S(=O)(c1ccc(F)cc1)c1cc2ccccc2c(Nc2ncns2)n1` [Example 18, N-(3-(4-fluorophenylsulfonyl)isoquinolin-1-yl)-1,2,4-thiadiazol-5-amine], for which the IC50 in experiment [1] is 0.1 to 0.5 µM. Moreover, the Kd on JAK2 was ≤ 0.005 µM; at JAK3, 0.01 to 0.1 µM; at TYK2, ≤ 0.01 µM. The “S-Score: S(10) at 10 μM” value in experiment [2] is recorded as “B (0.3 < B ≦ 0.4)”.
In the case of `O=S(=O)(c1ccc(F)cc1)c1cc2ccccc2c(Nc2cc(O)[nH]n2)n1` [Example 19, 3-(3-(4-fluorophenylsulfonyl)isoquinolin-1-ylamino)-1H-pyrazol-5-ol], the IC50 in experiment [1] was > 0.5 µM. The Kd at JAK2 is 0.005 to 0.05 µM; on JAK3, > 0.1 µM; at TYK2, 0.01 to 0.1 µM. In addition, the “S-Score: S(10) at 10 μM” value in experiment [2] is “A (A ≦ 0.3)”.
Turning to `Cn1cnc(Nc2nc(S(=O)(=O)c3ccc(F)cc3)cc3ccccc23)c1` [Example 20, 3-(4-fluorophenylsulfonyl)-N-(1-methyl-1H-imidazol-4-yl)isoquinolin-1-amine], the IC50 in experiment [1] was ≤ 0.1 µM. The figures for the Kd on JAK2, on JAK3 and on TYK2 were ≤ 0.005 µM, ≤ 0.01 µM and ≤ 0.01 µM, respectively. Besides, in experiment [2], the “S-Score: S(10) at 10 μM” value is “C (0.4 < C ≦ 0.5)”.
